Source: patent publication US11370776B2, “Sulfonylureas and sulfonylthioureas as NLRP3 inhibitors” (Inflazome Limited, priority 2017, dated 2022)
Counter-ions that a name gives are not always drawn.

The compounds below were run against NLRP3 (Homo sapiens, UniProt Q96P20) (assay: THP-1 cells pyroptosis assay). Settings: THP-1 cells, 1.0 μg/ml LPS, nigericin 5 μM, pyroptosis read with resazurin; read-out: THP IC50.
Assay type: cell-based
Design: Seed THP-1 cells (25,000 cells/well) containing 1.0 μg/ml LPS; host or cells: THP-1 cells, LPS-primed, nigericin-stimulated
Procedure: The cells were routinely passaged and grown to confluency (˜10^6 cells/ml). On the day of the experiment, THP-1 cells were harvested and resuspended into RPMI medium (without FBS). The cells were then counted and viability (>90%) checked by Trypan blue (Sigma # T8154). […] To this diluted cell solution was added LPS (Sigma # L4524) to give a 1 μg/ml Final Assay Concentration (FAC). 40 μl of the final preparation was aliquoted into each well of a 96-well plate. The plate thus prepared was used for compound screening. THP-1 Cells Pyroptosis Assay The following method step-by-step assay was followed for compound screening. • 1. […] Add 5 μl nigericin (Sigma # N7143) (FAC 5 μM) to all wells • 5. […] At the end of the incubation period, spin plates at 300×g for 3 mins and remove supernatant • 7. Then add 50 μl of resazurin (Sigma # R7017) (FAC 100 μM resazurin in RPMI medium without FBS) and incubate plates for a further 1-2 hrs at 37° C. and 5% CO2 • 8. […] IC50 data is fitted to a non-linear regression equation (log inhibitor vs response-variable slope 4-parameters) [table]

NLRP3, sequence (Q96P20 whole entry): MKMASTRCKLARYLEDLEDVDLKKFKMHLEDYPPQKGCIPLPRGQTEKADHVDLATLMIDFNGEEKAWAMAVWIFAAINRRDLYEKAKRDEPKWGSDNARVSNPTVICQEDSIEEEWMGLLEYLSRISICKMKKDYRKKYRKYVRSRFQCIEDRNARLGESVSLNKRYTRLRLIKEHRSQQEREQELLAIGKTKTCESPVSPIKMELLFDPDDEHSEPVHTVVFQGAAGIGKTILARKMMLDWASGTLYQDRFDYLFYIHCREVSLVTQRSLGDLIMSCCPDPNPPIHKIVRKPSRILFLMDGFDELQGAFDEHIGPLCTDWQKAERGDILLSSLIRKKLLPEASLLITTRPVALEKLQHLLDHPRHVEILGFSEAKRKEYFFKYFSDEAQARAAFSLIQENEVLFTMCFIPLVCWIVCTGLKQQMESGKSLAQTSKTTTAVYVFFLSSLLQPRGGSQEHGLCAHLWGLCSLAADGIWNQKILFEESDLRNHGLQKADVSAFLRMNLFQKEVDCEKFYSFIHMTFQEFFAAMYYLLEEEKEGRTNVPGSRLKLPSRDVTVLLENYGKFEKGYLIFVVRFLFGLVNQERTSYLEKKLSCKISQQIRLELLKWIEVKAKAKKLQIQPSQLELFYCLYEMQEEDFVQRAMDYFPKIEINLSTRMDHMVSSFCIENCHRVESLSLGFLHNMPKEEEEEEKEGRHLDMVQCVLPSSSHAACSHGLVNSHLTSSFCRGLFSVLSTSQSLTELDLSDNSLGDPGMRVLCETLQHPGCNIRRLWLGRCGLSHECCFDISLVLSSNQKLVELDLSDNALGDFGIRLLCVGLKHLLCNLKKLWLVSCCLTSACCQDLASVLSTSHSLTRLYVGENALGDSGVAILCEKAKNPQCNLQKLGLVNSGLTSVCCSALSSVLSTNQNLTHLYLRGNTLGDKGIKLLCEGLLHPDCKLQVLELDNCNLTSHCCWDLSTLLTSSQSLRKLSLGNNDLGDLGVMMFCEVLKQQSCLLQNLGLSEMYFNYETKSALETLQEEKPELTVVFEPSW

Structure (SMILES) | IC50 [nM]
O=C(Nc1c2c(cc3c1CCC3)CCC2)NS(=O)(=O)c1cccnn1 [Example 2, N-((1,2,3,5,6,7-Hexahydro-s-indacen-4-yl)carbamoyl)pyridazine-3-sulfonamide, Potassium Salt] | < 2000
O=C(Nc1c2c(cc3c1CCC3)CCC2)NS(=O)(=O)c1ncccn1 [Example 3, N-((1,2,3,5,6,7-Hexahydro-s-indacen-4-yl)carbamoyl) pyrimidine-2-sulfonamide, Potassium Salt] | < 1600
Cc1ccc(S(=O)(=O)NC(=O)Nc2c3c(cc4c2CCC4)CCC3)nn1 [Example 4, N-((1,2,3,5,6,7-Hexahydro-s-indacen-4-yl)carbamoyl)-6-methylpyridazine-3-sulfonamide, Sodium Salt] | < 10000
Cc1ccc(S(=O)(=O)NC(=O)Nc2c(C(C)C)cccc2C(C)C)nn1 [Example 5, N-((2,6-Diisopropylphenyl)carbamoyl)-6-methylpyridazine-3-sulfonamide, Potassium Salt] | < 10000
CC(C)c1cccc(C(C)C)c1NC(=O)NS(=O)(=O)c1cnccn1 [Example 6, N-((2,6-Diisopropylphenyl)carbamoyl)pyrazine-2-sulfonamide, Sodium Salt] | < 10000
O=C(Nc1c2c(cc3c1CCC3)CCC2)NS(=O)(=O)c1ccc(Cl)nn1 [Example 11, 6-Chloro-N-((1,2,3,5,6,7-hexahydro-s-indacen-4-yl)carbamoyl) pyridazine-3-sulfonamide, Potassium Salt] | < 10000
COc1cc(S(=O)(=O)NC(=O)Nc2c3c(cc4c2CCC4)CCC3)c(OC)nn1 [Example 12, N-((1,2,3,5,6,7-Hexahydro-s-indacen-4-yl)carbamoyl)-3,6-di methoxypyridazine-4-sulfonamide, potassium salt] | < 1200
CN(C)c1ccc(S(=O)(=O)NC(=O)Nc2c3c(cc4c2CCC4)CCC3)nn1 [Example 13, 6-(Dimethylamino)-N-((1,2,3,5,6,7-hexahydro-s-indacen-4-yl)carbamoyl)pyridazine-3-sulfonamide, potassium salt] | < 1600
O=C(Nc1c2c(cc3c1CCC3)CCC2)NS(=O)(=O)c1nccnc1C(F)F [Example 14, 3-(Difluoromethyl)-N-((1,2,3,5,6,7-hexahydro-s-indacen-4-yl)carbamoyl)pyrazine-2-sulfonamide, potassium salt] | < 2000
COc1ncccc1S(=O)(=O)NC(=O)Nc1c2c(cc3c1CCC3)CCC2 [Example 15, N-((1,2,3,5,6,7-Hexahydro-s-indacen-4-yl)carbamoyl)-2-methoxypyridine-3-sulfonamide, Potassium Salt] | < 1200
O=C(Nc1c2c(cc3c1CCC3)CCC2)NS(=O)(=O)c1cc(C(F)(F)F)cnn1 [Example 16, N-((1,2,3,5,6,7-Hexahydro-s-indacen-4-yl)carbamoyl)-5-(trifluoromethyl)pyridazine-3-sulfonamide, Potassium Salt] | < 10000
COc1cc(S(=O)(=O)NC(=O)Nc2c3c(cc4c2CCC4)CCC3)ncn1 [Example 19, N-((1,2,3,5,6,7-Hexahydro-s-indacen-4-yl)carbamoyl)-6-methoxypyrimidine-4-sulfonamide, Potassium Salt] | < 800
NC(=O)c1ccc(S(=O)(=O)NC(=O)Nc2c3c(cc4c2CCC4)CCC3)nn1 [Example 20, 6-(N-((1,2,3,5,6,7-Hexahydro-s-indacen-4-yl)carbamoyl)sulfamoyl) pyridazine-3-carboxamide, potassium salt] | < 10000
CN(C)c1cnnc(S(=O)(=O)NC(=O)Nc2c3c(cc4c2CCC4)CCC3)c1 [Example 21, 5-(Dimethylamino)-N-((1,2,3,5,6,7-hexahydro-s-indacen-4-yl)carbamoyl)pyridazine-3-sulfonamide, Potassium Salt] | < 800
COc1ccc(S(=O)(=O)NC(=O)Nc2c3c(cc4c2CCC4)CCC3)nn1 [Example 22, N-((1,2,3,5,6,7-Hexahydro-s-indacen-4-yl)carbamoyl)-6-methoxy pyridazine-3-sulfonamide, Potassium Salt] | < 1600
O=C(Nc1c2c(cc3c1CCC3)CCC2)NS(=O)(=O)c1ccc(=O)[nH]c1 [Example 23, N-((1,2,3,5,6,7-hexahydro-s-indacen-4-yl)carbamoyl)-6-oxo-1,6-dihydropyridine-3-sulfonamide, Potassium Salt] | < 10000

Structure (SMILES) | IC50 [nM]
N#Cc1nccnc1S(=O)(=O)NC(=O)Nc1c2c(cc3c1CCC3)CCC2 [Example 24, 3-Cyano-N-((1,2,3,5,6,7-hexahydro-s-indacen-4-yl)carbamoyl)pyrazine-2-sulfonamide, Potassium Salt] | < 10000
CN(C)CCNc1cnc(S(=O)(=O)NC(=O)Nc2c3c(cc4c2CCC4)CCC3)cn1 [Example 25, 5-((2-(Dimethylamino)ethyl)amino)-N-((1,2,3,5,6,7-hexahydro-s-indacen-4-yl)carbamoyl)pyrazine-2-sulfonamide, potassium Salt] | < 800
CN(C)c1cnc(S(=O)(=O)NC(=O)Nc2c3c(cc4c2CCC4)CCC3)cn1 [Example 26, 5-(Dimethylamino)-N-((1,2,3,5,6,7-hexahydro-s-indacen-4-yl)carbamoyl)pyrazine-2-sulfonamide, Potassium Salt] | < 800
O=C(Nc1c2c(cc3c1CCC3)CCC2)NS(=O)(=O)c1cncc(N2CCOCC2)n1 [Example 28, N-((1,2,3,5,6,7-Hexahydro-s-indacen-4-yl)carbamoyl)-6-morpholinopyrazine-2-sulfonamide, Potassium Salt] | < 800
Cc1nccnc1S(=O)(=O)NC(=O)Nc1c2c(cc3c1CCC3)CCC2 [Example 29, N-((1,2,3,5,6,7-Hexahydro-s-indacen-4-yl)carbamoyl)-3-methylpyrazine-2-sulfonamide, Potassium Salt] | < 10000
O=C(Nc1c2c(cc3c1CCC3)CCC2)NS(=O)(=O)c1cnc2ccccc2n1 [Example 30, N-((1,2,3,5,6,7-Hexahydro-s-indacen-4-yl)carbamoyl)quinoxaline-2-sulfonamide, Potassium Salt] | < 10000
Cc1nn(C)c2ncc(S(=O)(=O)NC(=O)Nc3c4c(cc5c3CCC5)CCC4)cc12 [Example 31, N-((1,2,3,5,6,7-Hexahydro-s-indacen-4-yl)carbamoyl)-1,3-dimethyl-1H-pyrazolo[3,4-b]pyridine-5-sulfonamide, Potassium Salt] | < 10000
CCOc1ccncc1S(=O)(=O)NC(=O)Nc1c2c(cc3c1CCC3)CCC2 [Example 32, 4-Ethoxy-N-((1,2,3,5,6,7-hexahydro-s-indacen-4-yl)carbamoyl)pyridine-3-sulfonamide, Potassium Salt] | < 10000
CC(C)c1cc(F)cc(-c2ccnc(C#N)c2)c1NC(=O)NS(=O)(=O)c1cncc(N(C)C)n1 [Example 34, N-((2-(2-Cyanopyridin-4-yl)-4-fluoro-6-isopropylphenyl)carbamoyl)-6-(dimethylamino)pyrazine-2-sulfonamide] | < 800
COc1cc(-c2cc(F)cc(C(C)C)c2NC(=O)NS(=O)(=O)c2cncc(N(C)C)n2)ccn1 [Example 35, 6-(Dimethylamino)-N-((4-fluoro-2-isopropyl-6-(2-methoxypyridin-4-yl)phenyl)carbamoyl)pyrazine-2-sulfonamide] | < 800
COc1cc(-c2ccc3c(c2NC(=O)NS(=O)(=O)c2cncc(N(C)C)n2)CCC3)ccn1 [Example 36, 6-(Dimethylamino)-N-((5-(2-methoxypyridin-4-yl)-2,3-dihydro-1H-inden-4-yl)carbamoyl)pyrazine-2-sulfonamide] | < 800
COc1cc(-c2cc(F)cc(C(C)C)c2NC(=O)NS(=O)(=O)c2cnc(N(C)C)cn2)ccn1 [Example 39, 5-(Dimethylamino)-N-((4-fluoro-2-isopropyl-6-(2-methoxypyridin-4-yl)phenyl)carbamoyl)pyrazine-2-sulfonamide] | < 800
CN(C)c1cnc(S(=O)(=O)NC(=O)Nc2c(-c3ccncc3)cc(F)c3c2CCC3)cn1 [Example 41, 5-(Dimethylamino)-N-((7-fluoro-5-(pyridin-4-yl)-2,3-dihydro-1H-inden-4-yl)carbamoyl)pyrazine-2-sulfonamide] | < 800
COc1cc(-c2cc(F)cc(C(C)C)c2NC(=O)NS(=O)(=O)c2nccnc2C(F)F)ccn1 [Example 43, 3-(Difluoromethyl)-N-((4-fluoro-2-isopropyl-6-(2-methoxypyridin-4-yl)phenyl)carbamoyl)pyrazine-2-sulfonamide] | < 10000
COc1cc(-c2ccc3c(c2NC(=O)NS(=O)(=O)c2nccnc2C(F)F)CCC3)ccn1 [Example 44, 3-(Difluoromethyl)-N-((5-(2-methoxypyridin-4-yl)-2,3-dihydro-1H-inden-4-yl)carbamoyl)pyrazine-2-sulfonamide] | < 1200
O=C(Nc1c(-c2ccncc2)cc(F)c2c1CCC2)NS(=O)(=O)c1nccnc1C(F)F [Example 45, 3-(Difluoromethyl)-N-((7-fluoro-5-(pyridin-4-yl)-2,3-dihydro-1H-inden-4-yl)carbamoyl)pyrazine-2-sulfonamide] | < 10000

Same assay, conditions: THP-1 pyroptosis assay, bound stated; read-out: IC50 value

Structure (SMILES) | IC50 [nM]
O=C(Nc1c2c(cc3c1CCC3)CCC2)NS(=O)(=O)c1ncccn1 [Example 3, N-((1,2,3,5,6,7-Hexahydro-s-indacen-4-yl)carbamoyl) pyrimidine-2-sulfonamide, Potassium Salt] | > 1200
